Where two headings read alike, the source gives them in different places.
Assays:
[1] = tested on: SW480 colon carcinoma cells; assay: Cell viability assay (CellTiter-Glo) in SW480 cells; format: cell-based, human;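 also: SW480 cells stably carrying an Sp5-luciferase TCF/LEF reporter, luminescent ATP signal as viability measure, DMSO-treated cells as control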
[2] = tested on: LL29 cells (primary human fibroblasts derived from IPF patients), α-smooth muscle actin; assay: Inhibition of fibrotic process: αSMA in TGF-β1-treated primary human fibroblasts from IPF patients (LL29 cells); format: cell-based; settings: Homo sapiens, Fibroblast; for EC50: 96 h, % αSMA-positive LL29 cells, TGF-β1 20 ng/mL, 4 days; for inhibition at 10 µM: read-out: percent inhibition at 10 μM
Outline: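 IPF-patient lung fibroblasts (LL29) were stimulated with TGF-β1 (20 ng/mL) in 1% FBS medium with compound (11-point 1:2 series, 0.1% DMSO) for 4 days at 37 °C. Fixed cells were immunostained for αSMA and imaged, excluding SYTOX-positive dead cells. The % αSMA-positive cells was normalized to TGF-β1/DMSO control wells.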

[3] = tested on: Wnt activity (Sp5-Luc reporter in SW480 colon carcinoma cells); assay: Wnt activity screening assay (Sp5-Luc reporter gene assay); format: cell-based, human
Outline: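 SW480 cells stably carrying an Sp5 promoter (eight TCF/LEF sites)-firefly luciferase reporter were plated in DMEM with 1% FBS and treated with a 10-point, 1:3 dilution series from 10 μM (0.1% DMSO) for 36 to 48 h at 37° C. Luminescence was normalized to DMSO controls, and EC50 came from four-parameter nonlinear regression.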

[4] = tested on: Tau phosphorylation at Ser396 (pSer396), SH-SY5Y cells; assay: Tau phosphorylation at Ser396 (pSer396) in SH-SY5Y cells, ELISA/western blot; format: cell-based, human; settings: Homo sapiens;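 also: cell lysates probed for reduced Tau pSer396 via ELISA (colorimetric) or western blot (chemiluminescence), both with one shared pSer396 antibody, EC50 for lowering phosphorylation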
[5] = target: GSK3β kinase (Homo sapiens (Human), UniProt P49841); assay: GSK3β kinase assay (Ser/Thr 09 peptide Z-lyte, FRET); format: biochemical; settings: method text calls the value IC50;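 also: Coumarin/fluorescein emission ratio converted to percent phosphorylation against unphosphorylated (0%) and phosphorylated (100%) controls, 1 h compound incubation at room temperature, 11-point threefold dilutions from 10 µM, run in duplicate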
Sequence of GSK3β kinase (P49841 whole entry): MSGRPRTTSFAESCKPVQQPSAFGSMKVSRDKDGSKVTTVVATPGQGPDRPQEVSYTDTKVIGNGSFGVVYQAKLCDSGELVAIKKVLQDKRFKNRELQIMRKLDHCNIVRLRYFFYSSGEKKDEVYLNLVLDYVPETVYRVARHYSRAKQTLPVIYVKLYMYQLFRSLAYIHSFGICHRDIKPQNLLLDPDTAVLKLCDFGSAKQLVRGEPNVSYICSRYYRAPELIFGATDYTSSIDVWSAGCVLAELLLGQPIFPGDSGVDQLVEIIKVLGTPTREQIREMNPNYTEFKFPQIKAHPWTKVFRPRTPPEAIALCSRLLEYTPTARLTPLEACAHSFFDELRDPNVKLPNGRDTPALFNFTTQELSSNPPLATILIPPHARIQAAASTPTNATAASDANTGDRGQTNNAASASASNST

[6] = tested on: IL-6; assay: IL-6 inhibition in LPS-stimulated human peripheral blood mononuclear cells (HTRF); format: cell-based; settings: Homo sapiens, PBMC; for inhibition at 10 µM: read-out: percent value in parentheses below EC50 >10; for EC50: IL-6, LPS-stimulated huPBMCs, HTRF
Outline: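 Fresh human PBMCs (5000 cells/well, 1% FBS RPMI) preincubated with compound (10-point 1:3 series from 10 μM, 0.25% DMSO) 2 h at 37 °C, then stimulated with 50 ng/mL E. coli LPS for 22 h. IL-6 by HTRF 665/620 ratio; DMSO-normalized, EC50 from 4-parameter fit.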

[7] = target: DYRK1A kinase (Homo sapiens (Human), UniProt Q13627); assay: DYRK1A kinase assay (Ser/Thr 18 peptide Z-lyte, FRET)
Experimental: Each compound was dissolved in DMSO as a 10 mM stock and used to prepare compound source plates.
This is a non-radioactive assay using fluorescence resonance energy transfer (FRET) between coumarin and fluorescein to detect kinase activity which is represented as a ratio of coumarin emission/fluorescein emission.
The mixture was allowed to incubate with the representative compounds for one hour at room temperature. All reactions were performed in duplicate. Unphosphorylated (“0% Control”) and phosphorylated (“100% control”) forms of Ser/Thr 18 served as control reactions. Additionally, an 11-point dose-response curve of Staurosporine (1 uM top) was run to serve as a positive compound control.
After incubation, Development Reagent A was diluted in Development Buffer then added to the reaction and allowed to further incubate for one hour at room temperature.
The percent phosphorylation was then calculated using the following formula: [1−((Em ratio×F100%)−C100%)/((C0%−C100%)+(Em ratio×(F100%−F0%)))]. Dose-response curves were generated and inhibitory concentration (IC50) values were calculated using non-linear regression curve fit in the Dotmatics' Studies Software (Bishops Stortford, UK).

[8] = Homo sapiens, 96 h; cell viability, SW480 cells, four days, CellTiter-Glo
[9] = Homo sapiens; Sp5-Luc reporter, SW480 cells, 36 to 48 hours
[10] = SH-SY5Y cells, overnight (16-18 h), read-out: pSer396 Tau EC50
[11] = DYRK1A kinase, method text calls the value IC50
[12] = Homo sapiens, SW480; read-out: percent inhibition at 10 μM
[13] = Homo sapiens, SW480, read-out: percent inhibition at 10 μM
[14] = SH-SY5Y, read-out: pSer396 Tau EC50 (μM)

SMILES | EC50 [1, 8] [µM] | EC50 [2] [µM] | EC50 [3, 9] [µM] | EC50 [4, 10] [µM] | EC50 [5] [µM] | inhibition at 10 µM [6] [%] | EC50 [6] [µM] | EC50 [7] [µM] | EC50 [7, 11] [µM] | inhibition at 10 µM [1, 12] [%] | inhibition at 10 µM [3, 12] [%] | inhibition at 10 µM [2] [%] | inhibition at 10 µM [1, 13] [%] | EC50 [4, 14] [µM] | inhibition at 10 µM [3, 13] [%]
[2H]c1c([2H])c(C(=O)Nc2cc3cc(-c4cnc(C)n4C)ccc3cn2)c([2H])c([2H])c1C [Compound 162, N-(6-(1,2-Dimethyl-1H-imidazol-5-yl)isoquinolin-3-yl)-4-methylbenzamide-2,3,5,6-d4] | 0.653 | 2 | 0.588 | > 10 | 5.06 | 44.7 | > 10 | 0.011 | – | – | – | – | – | – | –
[2H]c1c([2H])c(C([2H])([2H])[2H])c([2H])c([2H])c1C(=O)Nc1cc2cc(-c3cnc(C)n3C)ccc2cn1 [Compound 163, N-(6-(1,2-Dimethyl-1H-imidazol-5-yl)isoquinolin-3-yl)-4-(methyl-d3) benzamide-2,3,5,6-d4] | 0.795 | 0.876 | 0.604 | > 10 | 4.27 | – | 5.72 | 0.005 | – | – | – | – | – | – | –
[2H]C([2H])([2H])Oc1ccc(C(=O)Nc2cc3cc(-c4cnc(C)n4C)ccc3cn2)cc1 [Compound 164, N-(6-(1,2-Dimethyl-1H-imidazol-5-yl)isoquinolin-3-yl)-4-(methoxy-d3) benzamide] | 0.782 | 1.48 | 0.638 | > 10 | 4.58 | – | 3.39 | 0.011 | – | – | – | – | – | – | –
[2H]c1c([2H])c(C(=O)Nc2cc3cc(-c4cnc(C)n4C)ccc3cn2)c([2H])c([2H])c1OC([2H])([2H])[2H] [Compound 165, N-(6-(1,2-Dimethyl-1H-imidazol-5-yl)isoquinolin-3-yl)-4-(methoxy-d3) benzamide-2,3,5,6-d4] | 0.752 | 0.998 | 0.498 | > 10 | 3.74 | – | 2.85 | 0.006 | – | – | – | – | – | – | –
[2H]c1c([2H])c(C(=O)Nc2cc3cc(-c4cnc(C)n4C)ccc3cn2)c([2H])c([2H])c1OC [Compound 166, N-(6-(1,2-Dimethyl-1H-imidazol-5-yl)isoquinolin-3-yl)-4-methoxybenzamide-2,3,5,6-d4] | 0.671 | 1.88 | 0.525 | > 10 | 6.38 | – | 3.55 | 0.009 | – | – | – | – | – | – | –
Cn1cc(-c2ccc3cnc(NC(=O)C4CCN(C(C)(C)C)CC4)cc3c2)cn1 [Compound 167, 1-(tert-Butyl)-N-(6-(1-methyl-1H-pyrazol-4-yl)isoquinolin-3-yl)piperidine-4-carboxamide] | 3.34 | 0.293 | 2.35 | 0.288 | 0.096 | – | 1.25 | – | 0.007 | – | – | – | – | – | –
Cc1nnc(-c2ccc3cnc(NC(=O)N4CCC(NCC(F)F)CC4)cc3c2)s1 [Compound 168, 4-((2,2-Difluoroethyl)amino)-N-(6-(5-methyl-1,3,4-thiadiazol-2-yl)isoquinolin-3-yl)piperidine-1-carboxamide] | > 10 | 1.29 | > 10 | 0.578 | 0.02 | 14.2 | > 10 | – | 0.004 | 19.4 | 42.2 | – | – | – | –
CCCCN1CCC(C(=O)Nc2cc3cc(-c4cnn(C)c4)ccc3cn2)CC1 [Compound 169, 1-Butyl-N-(6-(1-methyl-1H-pyrazol-4-yl)isoquinolin-3-yl)piperidine-4-carboxamide] | 1.13 | 0.148 | 2.54 | 0.154 | 0.047 | – | 1.02 | – | 0.003 | – | – | – | – | – | –
CC(C)C[N+]1(CC(C)C)CCC(C(=O)Nc2cc3cc(-c4cnn(C)c4)ccc3cn2)CC1 [Compound 170, 1,1-Diisobutyl-4-((6-(1-methyl-1H-pyrazol-4-yl)isoquinolin-3-yl)carbamoyl)piperidin-1-ium] | > 10 | 7.09 | > 10 | 9.91 | 0.052 | 4.4 | > 10 | 0.015 | – | 27 | 23.1 | – | – | – | –
Cc1nnc(-c2ccc3cnc(NC(=O)N4C[C@H]5C[C@@H]4CN5C)cc3c2)s1 [Compound 176, (1R,4R)-5-Methyl-N-(6-(5-methyl-1,3,4-thiadiazol-2-yl)isoquinolin-3-yl)-2,5-diazabicyclo[2.2.1]heptane-2-carboxamide] | > 10 | > 10 | 1.03 | 4 | 0.207 | 8.4 | > 10 | – | 0.023 | 8.3 | – | 8.4 | – | – | –
CN[C@H]1CCN(C(=O)Nc2cc3cc(-c4nnc(C)s4)ccc3cn2)C[C@@H]1F [Compound 179, (3S,4S)-3-Fluoro-N-(6-(5-methyl-1,3,4-thiadiazol-2-yl)isoquinolin-3-yl)-4-(methylamino)piperidine-1-carboxamide] | 5.06 | > 10 | 2.78 | 1.3 | 0.026 | 10.1 | > 10 | – | 0.018 | – | – | 10.1 | – | – | –
Cc1nnc(-c2ccc3cnc(NC(=O)N4[C@@H]5CC[C@H]4C[C@@H](NCC(F)F)C5)cc3c2)s1 [Compound 188, (1R,5S)-cis-3-((2,2-difluoroethyl)amino)-N-(6-(5-methyl-1,3,4-thiadiazol-2-yl)isoquinolin-3-yl)-8-azabicyclo [3.2.1]octane-8-carboxamide] | > 10 | 2.48 | 8.21 | – | 0.154 | – | 5.77 | – | 0.003 | – | – | – | 28 | 4.8 | –
Cc1nnc(-c2ccc3cnc(NC(=O)N4[C@@H]5CC[C@H]4C[C@@H](N)C5)cc3c2)s1 [Compound 193, (1R,5S)-3-endo-Amino-N-(6-(5-methyl-1,3,4-thiadiazol-2-yl)isoquinolin-3-yl)-8-azabicyclo[3.2.1]octane-8-carboxamide] | > 10 | > 10 | > 10 | – | 0.33 | 6.5 | > 10 | – | 0.033 | – | – | 6.5 | 12.8 | > 10 | 8.4
Cc1nnc(-c2ccc3cnc(NC(=O)[C@H]4CC[C@H](N5CCN(C)CC5)CC4)cc3c2)s1 [Compound 194, trans-N-(6-(5-methyl-1,3,4-thiadiazol-2-yl)isoquinolin-3-yl)-4-(4-methylpiperazin-1-yl)cyclohexane-1-carboxamide] | 1.26 | 0.328 | 0.681 | 0.218 | 0.012 | – | 3.09 | – | 0.003 | – | – | – | – | – | –
Cn1cc(-c2ccc3cnc(NC(=O)[C@H]4CC[C@H](NCCF)CC4)cc3c2)cn1 [Compound 197, trans-4-((2-Fluoroethyl)amino)-N-(6-(1-methyl-1H-pyrazol-4-yl)isoquinolin-3-yl)cyclohexane-1-carboxamide] | 1.27 | 0.233 | 1.42 | 0.57 | 0.087 | – | 0.994 | – | 0.003 | – | – | – | – | – | –
COCCN[C@H]1CC[C@H](C(=O)Nc2cc3cc(-c4nnc(C)s4)ccc3cn2)CC1 [Compound 199, trans-4-((2-Methoxyethyl)amino)-N-(6-(5-methyl-1,3,4-thiadiazol-2-yl)isoquinolin-3-yl)cyclohexane-1-carboxamide] | 1.65 | 3.2 | 0.982 | 0.234 | 0.017 | – | 3.86 | – | 0.004 | – | – | – | – | – | –
Cc1nnc(-c2ccc3cnc(NC(=O)[C@H]4CC[C@H](NCCF)CC4)cc3c2)s1 [Compound 200, trans-4-((2-Fluoroethyl)amino)-N-(6-(5-methyl-1,3,4-thiadiazol-2-yl)isoquinolin-3-yl)cyclohexane-1-carboxamide] | 1.39 | 0.533 | 0.841 | 0.095 | 0.014 | – | 3.98 | – | 0.006 | – | – | – | – | – | –

— patent publication US10604514B2, “6-(5-membered heteroaryl)isoquinolin-3-yl carboxamides and preparation and use thereof” (Samumed, LLC, priority 2017, dated 2020)
